The structures appear in SMILES notation. Structures can show the parent of a compound that is named as a salt. Where only a bound is given, the exact number is not on record here.

This assay deals with Glycogen synthase kinase-3 beta (Homo sapiens, UniProt P49841). Kind of assay: concentration-response blocking of human GSK3B – biochemical, luminescence, cell-free homogeneous, retest, dose response (AID 434954).
Glycogen synthase kinase-3 beta, sequence (P49841 whole entry): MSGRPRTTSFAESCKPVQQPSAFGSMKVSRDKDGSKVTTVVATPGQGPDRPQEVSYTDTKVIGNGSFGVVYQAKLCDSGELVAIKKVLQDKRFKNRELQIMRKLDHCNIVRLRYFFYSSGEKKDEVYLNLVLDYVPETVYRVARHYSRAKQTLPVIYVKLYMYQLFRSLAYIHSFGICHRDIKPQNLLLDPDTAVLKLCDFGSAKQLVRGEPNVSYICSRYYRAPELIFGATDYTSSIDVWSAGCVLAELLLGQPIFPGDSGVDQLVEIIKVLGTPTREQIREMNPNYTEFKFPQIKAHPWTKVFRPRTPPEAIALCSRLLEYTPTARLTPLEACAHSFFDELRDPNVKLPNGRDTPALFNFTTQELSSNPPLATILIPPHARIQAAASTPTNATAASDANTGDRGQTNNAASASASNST
Broadly, the EC50 is the concentration giving half of the maximal effect. A high value points to lower potency in that assay. For the molecule `COc1ccc(C(=O)N/C(=C\c2ccco2)C(=O)NCCN2CCOCC2)cc1` [MLS000923740], the EC50 was > 300 µM.

For the molecule `CCOc1ccc(CNC(=O)C2CCN(c3nnc(C)c4c(C)n(-c5ccc(C)cc5)nc34)CC2)cc1` [MLS001028751], the EC50 is > 300 µM.

Take `COc1ccccc1-c1cc2ccccc2[nH]1` [2-(1H-indol-2-yl)phenyl methyl ether]: the half-maximal effective concentration (EC50) is > 300 µM.

As to `CCCc1cc(=O)[nH]c(SCCOc2ccc(OCC)cc2)n1`, the EC50 is > 300 µM.

Take `CCOC(=O)CC(=O)CSc1ccc2nnc(-c3cccc(F)c3)n2n1` [ethyl 4-[[3-(3-fluorophenyl)-[1,2,4]triazolo[4,3-b]pyridazin-6-yl]sulfanyl]-3-oxobutanoate]: the EC50 was > 300 µM.

Take `COc1cc(C=C2SC(Nc3ccc(O)cc3)=NC2=O)cc(OC)c1OC` [SMR000414809]: the EC50 was > 300 µM.

In turn, `COC(=O)c1ccc(CSc2nnc(-c3ccncc3)o2)o1` [methyl 5-({[5-(4-pyridinyl)-1,3,4-oxadiazol-2-yl]thio}methyl)-2-furoate] had an EC50 of 12.5 µM.

With `CC1CCCN(S(=O)(=O)c2ccc(Br)s2)C1` (centres undefined) [SMR000021898], the EC50 is > 300 µM.

Regarding `CCC(=O)Nc1sc2c(c1C(N)=O)CCN(Cc1ccccc1)C2`, the EC50 is > 300 µM.

As to `CN(C)c1nc(-c2cccnc2)nc(-c2ccccc2)c1C#N` [SMR000549421], the EC50 was > 300 µM.

As to `c1ccc(CCCCNCC2COc3ccccc3O2)cc1` (centres undefined) [N-(2,3-dihydro-1,4-benzodioxin-3-ylmethyl)-4-phenylbutan-1-amine], the EC50 was > 300 µM.

`COc1ccccc1C=NNC(=O)c1nnn(-c2nonc2N)c1CN(C)c1ccccc1` [1-(4-amino-1,2,5-oxadiazol-3-yl)-N-[(2-methoxyphenyl)methylideneamino]-5-[(N-methylanilino)methyl]triazole-4-carboxamide]: a half-maximal effect (EC50) was put at 4.14 µM.

Molecule `NC(=S)c1cn(C2OC(CO)C(O)C2O)c2ncnc(N)c12` (centres undefined) [4-amino-7-[3,4-dihydroxy-5-(hydroxymethyl)oxolan-2-yl]pyrrolo[2,3-d]pyrimidine-5-carbothioamide] returned a 50% effective concentration (EC50) of 12 µM.

Consider `COc1cc(CNC=C2C(=O)NC(=O)N(C(C)(C)C)C2=O)cc(OC)c1` [(5Z)-1-tert-butyl-5-[[(3,5-dimethoxyphenyl)methylamino]methylidene]-1,3-diazinane-2,4,6-trione], for which the half-maximal effective concentration (EC50) is > 300 µM.

Consider `Nc1nc(NCCN2CCOCC2)nc(NCc2ccccc2)c1[N+](=O)[O-]` [SMR000434816], for which the concentration for a half-maximal effect (EC50) was found to be 26.3 µM.

`CN(C)Cc1c(O)ccc2c1O/C(=C\C=C\c1ccccc1)C2=O` [7-Dimethylaminomethyl-6-hydroxy-2-[(E)-3-phenyl-prop-2-en-(Z)-ylidene]-benzofuran-3-one] yielded an EC50 of 31.4 µM.

Consider `C=C(Cl)COc1ccc2c(CCCC)cc(=O)oc2c1` [4-butyl-7-(2-chloranylprop-2-enoxy)chromen-2-one], for which the EC50 is > 300 µM.

With `O=C(Cn1cc2c(n1)CCCCC2)NC1CCN(Cc2ccccc2)CC1` [N-(1-benzylpiperidin-4-yl)-2-(5,6,7,8-tetrahydro-4H-cyclohepta[c]pyrazol-2-yl)acetamide], the EC50 is > 300 µM.

With `COc1ccc2nc3c(cc2c1)c(NC(=O)CC(C)C)nn3CC(C)C` [N-[6-methoxy-1-(2-methylpropyl)-3-pyrazolo[3,4-b]quinolinyl]-3-methylbutanamide], the concentration for a half-maximal effect (EC50) was > 300 µM.

In the case of `COc1ccc(/C=C/C(=O)NC2CCN(Cc3ccccc3)CC2)cc1OC` [(E)-N-(1-benzylpiperidin-4-yl)-3-(3,4-dimethoxyphenyl)prop-2-enamide], the EC50 was > 300 µM.

Turning to `NC(=O)COC(=O)c1ccc(-c2ccc(O)cc2)cc1`, the EC50 was > 300 µM.

With `O=C1C(=O)N(c2ccccn2)C(c2ccc(Br)cc2)C1C(=O)c1ccc(Br)cc1` (centres undefined), the EC50 was > 300 µM.

Turning to `O=C(Nc1ccccc1)ON=C1c2ccccc2-c2ccccc21` [9H-fluoren-9-one O-(anilinocarbonyl)oxime], the EC50 is > 300 µM.

As for `CCOc1ccc(-c2nnc3ccc(SC)nn23)cc1` [SMR000028968], the EC50 is > 300 µM.

`COc1ccc2occ(C(C)=O)c2c1` [1-(5-methoxy-3-benzofuranyl)ethanone]: the EC50 is > 300 µM.

Turning to `Nc1nc(NCCc2ccccc2)nc(NCCO)c1[N+](=O)[O-]` [MLS001213372], the concentration for a half-maximal effect (EC50) is 2.01 µM.

As for `CCn1nc(NC(=O)C2CCCO2)c2cc3cccc(C)c3nc21` (centres undefined) [Tetrahydro-furan-2-carboxylic acid (1-ethyl-8-methyl-1H-pyrazolo[3,4-b]quinolin-3-yl)-amide], the EC50 is > 300 µM.

For `O=c1c2ccccc2cnn1-c1nc2ccccc2[nH]1` [MLS001017304], the midpoint of the response, the EC50, lay at 25.1 µM.

For the molecule `CC1(C)CC(=O)C2C(=Nc3cc4c(cc3C2c2ccc(F)cc2)OCO4)C1` (centres undefined) [MLS000528763], the EC50 is > 300 µM.

On to `CCCc1cc(NCc2ccccn2)n2nc(C)c(-c3ccccc3)c2n1` [MLS000762884], for which the EC50 is > 300 µM.

Take `COc1ccc(N2CCN(CC(O)COc3c(OC)cccc3OC)CC2)cc1` (centres undefined) [1-(2,6-dimethoxyphenoxy)-3-[4-(4-methoxyphenyl)piperazin-1-yl]propan-2-ol;hydrochloride]: the EC50 was > 300 µM.

Regarding `COc1ccc(CN(CC(=O)NCc2ccco2)C(=O)CCC(=O)Nc2ccccn2)cc1` [N'-[2-(2-furanylmethylamino)-2-oxoethyl]-N'-[(4-methoxyphenyl)methyl]-N-(2-pyridinyl)butanediamide], the EC50 is > 300 µM.

For the molecule `Cc1cccc(COc2ccc(C=NNC(=O)c3nnn(-c4nonc4N)c3CN3CCCCC3)cc2)c1` [SMR000646486], the EC50 is > 300 µM.

For `CC(=O)c1ccc(Cc2cnc(N)s2)cc1` [1-{4-[(2-amino-1,3-thiazol-5-yl)methyl]phenyl}ethanone], the EC50 is > 300 µM.

`Cc1ccc2c(c1)C1CN(C)CCC1N2C(=S)Nc1ccc(Cl)cc1Cl` (centres undefined) [SMR000385491]: the half-maximal effective concentration (EC50) is > 300 µM.

As to `CCOC(=O)c1c(C)[nH]c(C)c1C(=O)CN1C(=O)NC(CC(C)C)C1=O` (centres undefined) [ethyl 2,5-dimethyl-4-[2-[4-(2-methylpropyl)-2,5-dioxoimidazolidin-1-yl]acetyl]-1H-pyrrole-3-carboxylate], the EC50 was > 300 µM.

As for `Cc1cc(N2CCN(C(=O)c3ccco3)CC2)c2ccccc2n1` [SMR000460267], the EC50 was > 300 µM.

Turning to `COc1ccc(-c2cc(-c3ccco3)nc(O)c2C#N)cc1` [6-(furan-2-yl)-4-(4-methoxyphenyl)-2-oxidanylidene-1H-pyridine-3-carbonitrile], the EC50 was > 300 µM.

`O=C(CN(Cc1ccc(F)cc1)C(=O)CCC(=O)Nc1ccccn1)NCc1ccc(F)cc1` [N-(4-Fluoro-benzyl)-N-[(4-fluoro-benzylcarbamoyl)-methyl]-N'-pyridin-2-yl-succinamide]: the EC50 amounted to 37.7 µM.

Regarding `COc1ccc(N2CCN(CCNC(=O)c3nnc(Cc4c(F)cccc4Cl)o3)CC2)cc1` [MLS000083714], the EC50 was > 300 µM.

On to `CCOC(=O)c1nnn(-c2nonc2N)c1CN1CCc2ccccc2C1` [ethyl 1-(4-amino-1,2,5-oxadiazol-3-yl)-5-(3,4-dihydro-1H-isoquinolin-2-ylmethyl)triazole-4-carboxylate], for which the EC50 was determined as 71.5 µM.

As to `CC(C)OCCCN1CN(S(=O)(=O)c2cccc(Cl)c2)c2nc3ccccc3nc21` [1-(3-Chloro-benzenesulfonyl)-3-(3-isopropoxy-propyl)-2,3-dihydro-1H-imidazo[4,5-b]quinoxaline], the EC50 was > 300 µM.

Take `Cc1ccc2cc3c(NC(=O)C4CCCO4)nn(CC(C)C)c3nc2c1` (centres undefined) [SMR000148634]: the EC50 is > 300 µM.

In turn, `O=c1cc(-c2ccncc2)oc2ccccc12` [2-(4-pyridyl)chromone] showed an EC50 of 17.9 µM.

In the case of `CC(=O)NC(=S)Nc1ccccc1N1CCCCC1` [SMR000292167], the EC50 was > 300 µM.

For the molecule `COc1ccc(NC(=O)Nc2ccccn2)cc1OC` [N-(3,4-dimethoxyphenyl)-N'-2-pyridinylurea], the EC50 was > 300 µM.

Turning to `Cc1cc(-c2onc3ccc(Cl)cc23)ccc1O` [(4E)-4-(5-chloro-1H-2,1-benzoxazol-3-ylidene)-2-methylcyclohexa-2,5-dien-1-one], the EC50 is > 300 µM.

With `O=C1NC(=O)N(Cc2ccc(F)cc2)C(=O)C1=CNCCN1CCCCC1` [MLS000040945], the EC50 is > 300 µM.

With `Cc1ccc2nc3c(cc2c1)c(NC(=O)C(C)(C)C)nn3CC(C)C` [2,2-dimethyl-N-[6-methyl-1-(2-methylpropyl)pyrazolo[3,4-b]quinolin-3-yl]propanamide], the 50% effective concentration (EC50) was > 300 µM.

In turn, `CN(C)Cc1c(C(=O)NN=CCCc2ccccc2)nnn1-c1nonc1N` came in with an EC50 of 21.8 µM.

Consider `CCC(=O)Nc1sc2c(c1C(N)=O)CCN(C(C)=O)C2` [6-acetyl-2-(1-oxopropylamino)-5,7-dihydro-4H-thieno[2,3-c]pyridine-3-carboxamide], for which the EC50 turned out to be 13.8 µM.

With `CCOC(=O)CC(=O)CSc1ccc2nnc(-c3ccc(F)cc3)n2n1` [ethyl 4-{[3-(4-fluorophenyl)[1,2,4]triazolo[4,3-b]pyridazin-6-yl]thio}-3-oxobutanoate], the response was half-maximal at 83.8 µM (EC50).

Regarding `CC(=O)N1CCc2c(sc(NC(=O)C3CCCN3S(=O)(=O)c3cccs3)c2C(N)=O)C1` (centres undefined) [6-acetyl-2-[(1-thiophen-2-ylsulfonylpyrrolidine-2-carbonyl)amino]-5,7-dihydro-4H-thieno[2,3-c]pyridine-3-carboxamide], the EC50 was > 300 µM.

In the case of `CN(C)c1nc(N)c([N+](=O)[O-])c(NCC2CCCO2)n1` (centres undefined) [SMR000436172], the EC50 is > 300 µM.

With `CC1CC(=O)Nc2ccc([N+](=O)[O-])cc2N1C` (centres undefined) [SMR000207335], the EC50 is > 300 µM.

As for `O=[N+]([O-])c1cc(/C=N/n2cnnc2)ccc1N1CCCC1` [1-[3-nitro-4-(1-pyrrolidinyl)phenyl]-N-(1,2,4-triazol-4-yl)methanimine], the EC50 is > 300 µM.

On to `Cc1cc(NC(=O)CSc2nnc(C3CC3)n2Cc2ccccc2)no1` [MLS000566701], for which the EC50 is > 300 µM.

Turning to `CCN1/C(=C/c2ccc3cccc(C)c3[n+]2CC)Sc2ccccc21` [(2Z)-3-ethyl-2-[(1-ethyl-8-methyl-2-quinolin-1-iumyl)methylidene]-1,3-benzothiazole;iodide], the EC50 was > 300 µM.

With `C=CCNC(=O)/C(=C\c1cccc([N+](=O)[O-])c1)NC(=O)c1ccccc1`, the EC50 is > 300 µM.

These data come from BindingDB's records for doi:10.7270/Q2TX3CTT (Broad Institute, 2010).
